Source: PubChem BioAssay AID330 (DTP/NCI, 2004)
Values joined by “and” are separate entries in the source; they are usually repeats but may differ in a detail not shown here. Equal values may be shown once. Inconclusive results and toxic doses are left out.

Tested on: P388 leukemia ip, CD2F1 mice, survival T/C
Test: NCI In Vivo Anticancer Drug Screen. Data for tumor model P388 Leukemia (intraperitoneal) in CD2F1 (CDF1) mice
Conditions: endpoint: median survival time, higher = longer survival
Summary of the method: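 Mice carrying the transplanted tumor received test compound or vehicle. Survival was recorded in each group, and the value is the treated-group measurement divided by that of the vehicle-treated control group.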

[1] = dose: 50.0 mg/kg/injection, schedule: Q01DX005 (ip), vehicle: Klucel (hydroxypropylcellulose) (HPC)
[2] = dose: 100.0 mg/kg/injection, schedule: Q01DX005 (ip), vehicle: Klucel (hydroxypropylcellulose) (HPC)
[3] = dose: 100.0 mg/kg/injection, schedule: Q04DX003 (ip), vehicle: saline with Tween-80
[4] = dose: 200.0 mg/kg/injection, schedule: Q04DX003 (ip), vehicle: saline with Tween-80
[5] = dose: 400.0 mg/kg/injection, schedule: Q04DX003 (ip), vehicle: saline with Tween-80
[6] = dose: 25.0 mg/kg/injection, schedule: Q01DX005 (ip), vehicle: Klucel (hydroxypropylcellulose) (HPC)
[7] = dose: 200.0 mg/kg/injection, schedule: Q01DX005 (ip), vehicle: Klucel (hydroxypropylcellulose) (HPC)
[8] = dose: 100.0 mg/kg/injection, schedule: Q01DX001 (ip), vehicle: Klucel (hydroxypropylcellulose) (HPC)

## O=C(Nc1cccc(C(F)(F)F)c1)OC1CC2CC1C1CC3OC3C21 (stereo unspecified)
[1]
  T/C: 93 % of control
[2]
  T/C: 87 % of control

## CS(C)=O
dose: 93.75 mg/kg/injection, schedule: Q01DX009 (ip), vehicle: saline
  T/C: 109 % of control
dose: 187.5 mg/kg/injection, schedule: Q01DX009 (ip), vehicle: saline
  T/C: 107 % of control
dose: 375.0 mg/kg/injection, schedule: Q01DX009 (ip), vehicle: saline
  T/C: 98 % of control
dose: 750.0 mg/kg/injection, schedule: Q01DX009 (ip), vehicle: saline
  T/C: 109 % of control
dose: 1500.0 mg/kg/injection, schedule: Q01DX009 (ip), vehicle: saline
  T/C: 104 % of control
dose: 1.5 grams/kg/injection, schedule: Q01DX001 (ip), vehicle: saline
  T/C: 99 % of control and 101 % of control
dose: 1.5 grams/kg/injection, schedule: Q01DX009 (ip), vehicle: saline
  T/C: 101 % of control and 109 % of control
dose: 2.0 % in 0.5 ml injection vol, schedule: Q01DX009 (ip), vehicle: water
  T/C: 103 % of control and 95 % of control
dose: 3000.0 mg/kg/injection, schedule: Q01DX001 (ip), vehicle: water
  T/C: 104 % of control
dose: 3000.0 mg/kg/injection, schedule: Q01DX009 (ip), vehicle: saline
  T/C: 95 % of control
dose: 3.0 grams/kg/injection, schedule: Q01DX001 (ip), vehicle: saline
  T/C: 104 % of control and 106 % of control
dose: 3.0 grams/kg/injection, schedule: Q01DX009 (ip), vehicle: saline
  T/C: 96 % of control
dose: 3.1 grams/kg/injection, schedule: Q01DX009 (ip), vehicle: water
  T/C: 101 % of control
dose: 4.0 % in 0.5 ml injection vol, schedule: Q01DX009 (ip), vehicle: water
  T/C: 112 % of control and 94 % of control
dose: 6000.0 mg/kg/injection, schedule: Q01DX001 (ip), vehicle: water
  T/C: 99 % of control
dose: 6.0 grams/kg/injection, schedule: Q01DX001 (ip), vehicle: saline
  T/C: 95 % of control and 98 % of control
dose: 6.0 grams/kg/injection, schedule: Q01DX009 (ip), vehicle: saline
  T/C: 100 % of control and 106 % of control
dose: 6.2 grams/kg/injection, schedule: Q01DX009 (ip), vehicle: water
  T/C: 97 % of control
dose: 6.25 % in 0.5 ml injection vol, schedule: Q01DX009 (ip), vehicle: water
  T/C: 103 % of control
dose: 8.0 % in 0.5 ml injection vol, schedule: Q01DX009 (ip), vehicle: water
  T/C: 103 % of control and 112 % of control
dose: 12000.0 mg/kg/injection, schedule: Q01DX001 (ip), vehicle: water
  T/C: 101 % of control
dose: 12.0 grams/kg/injection, schedule: Q01DX001 (ip), vehicle: saline
  T/C: 104 % of control and 96 % of control
dose: 12.5 % in 0.5 ml injection vol, schedule: Q01DX009 (ip), vehicle: water
  T/C: 110 % of control
dose: 12.5 grams/kg/injection, schedule: Q01DX009 (ip), vehicle: water
  T/C: 108 % of control
dose: 16.0 % in 0.5 ml injection vol, schedule: Q01DX009 (ip), vehicle: water
  T/C: 102 % of control and 105 % of control and 112 % of control
dose: 24.0 grams/kg/injection, schedule: Q01DX001 (ip), vehicle: saline
  T/C: 37 % of control and 39 % of control
dose: 25.0 % in 0.5 ml injection vol, schedule: Q01DX009 (ip), vehicle: water
  T/C: 117 % of control
dose: 32.0 % in 0.5 ml injection vol, schedule: Q01DX009 (ip), vehicle: water
  T/C: 111 % of control and 121 % of control

## C[C@]12CC[C@@H]3c4ccc(OC(=O)Cc5ccc(N(CCCl)CCCl)cc5)cc4CC[C@H]3[C@@H]1CC[C@@H]2OC(=O)Cc1ccc(N(CCCl)CCCl)cc1
[3]
  T/C: 100 % of control
[4]
  T/C: 120 % of control
dose: 264.0 mg/kg/injection, schedule: Q04DX003 (ip), vehicle: saline with Tween-80
  T/C: 109 % of control
[5]
  T/C: 113 % of control
dose: 600.0 mg/kg/injection, schedule: Q04DX003 (ip), vehicle: saline with Tween-80
  T/C: 154 % of control

## CCOC(=O)Nc1cc(NCC(=O)c2ccc3ccccc3c2)c([N+](=O)[O-])c(N)n1
dose: 60.0 mg/kg/injection, schedule: Q01DX005 (ip), vehicle: Klucel (hydroxypropylcellulose) (HPC)
  T/C: 92 % of control
dose: 120.0 mg/kg/injection, schedule: Q01DX005 (ip), vehicle: Klucel (hydroxypropylcellulose) (HPC)
  T/C: 91 % of control
dose: 240.0 mg/kg/injection, schedule: Q01DX005 (ip), vehicle: Klucel (hydroxypropylcellulose) (HPC)
  T/C: 98 % of control

## CN1C(=O)/C(=N\n2c(-c3ccccc3)nc3ccccc3c2=O)c2ccccc21
[6]
  T/C: 91 % of control
[1]
  T/C: 87 % of control and 88 % of control
[2]
  T/C: 102 % of control and 89 % of control
[7]
  T/C: 100 % of control

## O=c1cc[nH]cc1
dose: 50.0 mg/kg/injection, schedule: Q01DX009 (ip), vehicle: saline
  T/C: 100 % of control and 103 % of control
dose: 100.0 mg/kg/injection, schedule: Q01DX009 (ip), vehicle: saline
  T/C: 103 % of control and 109 % of control
dose: 200.0 mg/kg/injection, schedule: Q01DX009 (ip), vehicle: saline
  T/C: 101 % of control and 113 % of control
dose: 400.0 mg/kg/injection, schedule: Q01DX009 (ip), vehicle: saline
  T/C: 111 % of control and 116 % of control
dose: 600.0 mg/kg/injection, schedule: Q01DX009 (ip), vehicle: saline
  T/C: 112 % of control and 113 % of control

## CCC1=Cc2cc([N+](=O)[O-])cc(OC)c2OC12SCCN2C (stereo unspecified)
[3]
  T/C: 100 % of control
[4]
  T/C: 103 % of control
[5]
  T/C: 103 % of control

## CC(=O)c1c(-c2ccccc2)noc1-c1ccccc1
dose: 100.0 mg/kg/injection, schedule: Q04DX003 (ip), vehicle: saline
  T/C: 102 % of control
dose: 200.0 mg/kg/injection, schedule: Q04DX003 (ip), vehicle: saline
  T/C: 102 % of control
dose: 400.0 mg/kg/injection, schedule: Q04DX003 (ip), vehicle: saline
  T/C: 101 % of control

## CCN(CC)CCSSCCN(CC)CC.[Cl][Mn][Cl]
[1]
  T/C: 114 % of control
[2]
  T/C: 117 % of control

## CC(C)(C)C(=O)CC(=O)C(F)(F)C(F)(F)C(F)(F)F.CC(C)(C)C(=O)CC(=O)C(F)(F)C(F)(F)C(F)(F)F.CC(C)(C)C(=O)CC(=O)C(F)(F)C(F)(F)C(F)(F)F.[Gd]
dose: 60.0 mg/kg/injection, schedule: Q01DX005 (ip), vehicle: saline with Tween-80
  T/C: 105 % of control
dose: 120.0 mg/kg/injection, schedule: Q01DX005 (ip), vehicle: saline with Tween-80
  T/C: 110 % of control
dose: 240.0 mg/kg/injection, schedule: Q01DX005 (ip), vehicle: saline with Tween-80
  T/C: 105 % of control

## [Fe+2].[Fe+2].c1ccc2c(c1)-c1nc-2nc2[n-]c(nc3nc(nc4[n-]c(n1)c1ccccc41)-c1ccccc1-3)c1cc3c4nc5nc(nc6[n-]c(nc7nc(nc([n-]4)c3cc21)-c1ccccc1-7)c1ccccc61)-c1ccccc1-5
[1]
  T/C: 100 % of control
[2]
  T/C: 110 % of control
[7]
  T/C: 106 % of control

## CC1=C(C)C2C(=O)NC(=O)NC12 (stereo unspecified)
[8]
  T/C: 100 % of control
dose: 200.0 mg/kg/injection, schedule: Q01DX001 (ip), vehicle: Klucel (hydroxypropylcellulose) (HPC)
  T/C: 91 % of control

## Cc1cccc(NC(=O)CCC(=O)NS(C)(=O)=O)c1
dose: 100.0 mg/kg/injection, schedule: Q04DX002 (ip), vehicle: saline
  T/C: 103 % of control
dose: 200.0 mg/kg/injection, schedule: Q04DX002 (ip), vehicle: saline
  T/C: 102 % of control
dose: 400.0 mg/kg/injection, schedule: Q04DX002 (ip), vehicle: saline
  T/C: 100 % of control

## O=C(/C=C\c1ccncc1)c1ccc([N+](=O)[O-])cc1
dose: 25.0 mg/kg/injection, schedule: Q01DX009 (ip), vehicle: other
  T/C: 103 % of control
dose: 50.0 mg/kg/injection, schedule: Q01DX009 (ip), vehicle: other
  T/C: 101 % of control
dose: 100.0 mg/kg/injection, schedule: Q01DX009 (ip), vehicle: other
  T/C: 96 % of control
dose: 200.0 mg/kg/injection, schedule: Q01DX009 (ip), vehicle: other
  T/C: 93 % of control
dose: 400.0 mg/kg/injection, schedule: Q01DX009 (ip), vehicle: other
  T/C: 92 % of control

## O=NNc1ccc(Sc2ccccc2)cn1
dose: 6.25 mg/kg/injection, schedule: Q01DX009 (ip), vehicle: saline
  T/C: 153 % of control
dose: 12.5 mg/kg/injection, schedule: Q01DX009 (ip), vehicle: saline
  T/C: 88 % of control and 90 % of control

## O=C(NCCCl)Oc1cc(Cl)c(Cl)cc1Cl
dose: 12.5 mg/kg/injection, schedule: Q01DX005 (ip), vehicle: Klucel (hydroxypropylcellulose) (HPC)
  T/C: 120 % of control
[6]
  T/C: 111 % of control
[8]
  T/C: 102 % of control

## Oc1c(CN2CCCC2)cc(Nc2cc(/C=C/c3ccc(Cl)cc3)nc(/C=C\c3ccc(Cl)cc3)n2)cc1CN1CCCC1
dose: 0.62 mg/kg/injection, schedule: Q01DX009 (ip), vehicle: saline with Tween-80
  T/C: 103 % of control
dose: 1.25 mg/kg/injection, schedule: Q01DX009 (ip), vehicle: saline with Tween-80
  T/C: 112 % of control
dose: 2.5 mg/kg/injection, schedule: Q01DX009 (ip), vehicle: saline with Tween-80
  T/C: 105 % of control
dose: 5.0 mg/kg/injection, schedule: Q01DX009 (ip), vehicle: saline with Tween-80
  T/C: 106 % of control
dose: 10.0 mg/kg/injection, schedule: Q01DX009 (ip), vehicle: saline with Tween-80
  T/C: 92 % of control
